By pIC50 is commonly meant the IC50 on a negative log10 scale, so that one unit is a factor of ten. What is called pKi is −log10 of the Ki, conventionally taken in molar units. In general, % Inhibition refers to the change of the read-out against control, counted positive when it falls. As usually defined, the inhibition is the relative decrease from the control value, in per cent.

The experiment addresses P2Y12 receptor (Homo sapiens, UniProt Q9H244). Description: [33P]-2MeS-ADP binding to recombinant human P2Y12 membranes (Assay 3). On the set-up: expressed in transfected cells; host or cells: HEK cells. As to conditions: for pIC50 / pKi: HEK cell membranes expressing human P2Y12, competition with 33P 2MeS-ADP; for % Inhibition / inhibition at 10 µM: at highest concentration tested, 10 μM. As for the experimental part:
3. Human P2Y12 Recombinant Cell Membrane Binding Assay with ^33P 2MeS-ADP.
The ability of a test compound to bind to the P2Y12 receptor was evaluated in a recombinant cell membrane binding assay. In this competitive binding assay, the test compound competed against a radiolabelled agonist for binding to the P2Y12 receptor, expressed on the cell membrane. Inhibition of binding of the labeled material was measured and correlated to the amount and potency of the test compound. Data from this assay are presented in Table F. This binding assay is a modification of the procedure in Takasaki, J. et. al, Mol. Pharmacol., 2001, Vol. 60, pg. 432.
HEK cells were transfected with the pDONR201P2Y12 vector and cultured in MEM with GlutaMAX I, Earle's salts, 25 mM HEPES (Gibco # 42360-032) containing 10% dialyzed FBS (Gibco # 26400-044), 100 μM nonessential amino acids (Gibco # 11140-050), 1 mM sodium pyruvate (Gibco # 11360-070), 0.05% geneticin (Gibco #10131-027), 3 μg/mL blasticidin (Fluka brand from Sigma # 15205), and 0.5 μg/mL puromycin (Sigma # P-8833).
Confluent cells were washed once with cold DPBS (Gibco # 14190-136). Fresh DPBS was added and the cells were scraped and centrifuged at 500×g for 5 minutes at 4° C. The cell pellets were resuspended in TEE buffer (25 mM Tris, 5 mM EDTA, 5 mM EGTA) containing 1 protease inhibitor cocktail tablet (Roche # 1 873 580) per 50 mL (called TEE+Complete) and can be flash frozen at this point.
In one embodiment, frozen cell pellets were used to prepare the membranes. In that embodiment, the frozen cell pellets were thawed on ice. In another embodiment, cell pellets may be used without flash freezing before moving on to the next step.
Cell pellets were resuspended in TEE buffer+Complete and homogenized in a glass dounce for 12 strokes. The cell suspension was centrifuged at 500×g for 5 minutes at 4° C. The supernatant was saved and centrifuged at 20,000×g for 20 minutes at 4° C. This supernatant was discarded and the cell pellet resuspended in TEE buffer+Complete and homogenized in a glass dounce for 12 strokes. This suspension was centrifuged at 20,000×g for 20 minutes at 4° C. and the supernatant discarded. The pellet was resuspended in assay buffer (50 mM Tris, 100 mM NaCl, 1 mM EDTA) containing one protease inhibitor cocktail tablet per 50 mL, and can be flash frozen as 1 mL aliquots at this point.
Dry compounds were diluted as 10 mM DMSO stocks and tested in a seven-point, three-fold dilution series run in triplicate beginning at 10 μM, final concentration. A 1 mM DMSO intermediate stock was made in a dilution plate and from this the seven dilutions were made to 5× the final concentration in assay buffer containing 0.02% BSA.
The plates were incubated at room temperature for 1 hour. The reaction was stopped using a cell harvester to transfer the reaction mixture onto GF/B UniFilter plates (Perkin Elmer # 6005177), and washed three times with wash buffer (50 mM Tris), filtering between each wash. The filter plates were dried for approximately 20 minutes in an oven at 50° C. Back seals were adhered to the filter plates and 25 uL of Microscint 20 scintillation fluid (Perkin Elmer # 6013621) were added. The filter plates were sealed, shaken for 30 minutes, and counted on a Top Count. Data were analyzed using a four-parameter curve fit with a fixed minimum and maximum experimentally defined as the average positive and negative controls on each plate, and with a hill slope equal to one.
The table below presents the IC50, Ki, and percent inhibition values for compounds tested in either washed human platelets membrane binding assay (assay #1 above) or recombinant cell membrane binding assay (Assay #3, above). Example number refers to the compound prepared as described in the example noted in the section Working Examples, above. The highest concentration of candidate compound tested is listed for each experimental run presented. […]

pIC50, pKi: −log10 of the molar value. Several values for one entry are separate records, joined by “and”; a condition that tells them apart may be missing. Equal entries are not always repeated.

Sequence of P2Y12 receptor (Q9H244 whole entry): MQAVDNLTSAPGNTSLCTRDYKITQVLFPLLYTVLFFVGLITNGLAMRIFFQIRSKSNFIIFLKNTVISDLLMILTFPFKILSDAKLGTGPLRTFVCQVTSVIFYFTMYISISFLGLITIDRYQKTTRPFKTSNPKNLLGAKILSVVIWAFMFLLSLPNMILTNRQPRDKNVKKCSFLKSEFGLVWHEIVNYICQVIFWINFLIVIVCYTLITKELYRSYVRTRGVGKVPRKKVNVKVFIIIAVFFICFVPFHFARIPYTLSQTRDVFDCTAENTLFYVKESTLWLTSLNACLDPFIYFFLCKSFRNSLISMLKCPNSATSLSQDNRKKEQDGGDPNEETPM

For the compound `CCc1cc2c(N3CCN(C(=O)c4cccc(C#N)c4)CC3)nc(SCC(=O)OC)nc2s1` [Example 64, Methyl ({4-[4-(3-cyanobenzoyl)piperazin-1-yl]-6-ethylthieno[2,3-d]pyrimidin-2-yl}thio)acetate], the pIC50 was 6.80 and 6.38 and 6.48; the pKi is 7.03 and 6.60 and 6.67; the “% Inhibition” value was 81.22% and 90.29%; the inhibition at 10 µM amounted to 91.3%.
Regarding `CCc1cc2c(N3CCN(C(=O)CC(=O)OC)CC3)nc(SCC(=O)OC)nc2s1` [Example 44, Methyl 3-(4-{6-ethyl-2-[(2-methoxy-2-oxoethyl)thio]thieno[2,3-d]pyrimidin-4-yl}piperazin-1-yl)-3-oxopropanoate], the pIC50 is 5.39, the pKi is 5.57 and the inhibition at 10 µM is 63.6%.
The matching figures for `CCc1cc2c(N3CCN(C(=O)CCCC(=O)OC)CC3)nc(SCC(=O)OC)nc2s1` [Example 41, Methyl 5-(4-{6-ethyl-2-[(2-methoxy-2-oxoethyl)thio]thieno[2,3-d]pyrimidin-4-yl}piperazin-1-yl)-5-oxopentanoate]: 5.59, 5.76 and 71.6%.
On to `CCOc1ccc(C(=O)N2CCN(c3nc(SCC(=O)OC)nc4sc(CC)cc34)CC2)cc1` [Example 57, Methyl ({4-[4-(4-ethoxybenzoyl)piperazin-1-yl]-6-ethylthieno[2,3-d]pyrimidin-2-yl}thio)acetate], for which the negative logarithm of the IC50 (pIC50) was 5.98, the pKi was 6.28 and the inhibition at 10 µM is 80.8%.
Turning to `CCc1cc2c(N3CCN(C(=O)Cc4ccccc4)CC3)nc(SC(C)C(C)=O)nc2s1` (centres unmarked) [Example 14, 3-({6-Ethyl-4-[4-(phenylacetyl)piperazin-1-yl]thieno[2,3-d]pyrimidin-2-yl}thio)butan-2-one], the negative-log IC50 (pIC50) is 6.54 and 6.48; the pKi was 6.80 and 6.70; the “% Inhibition” value was 83.72%; the inhibition at 10 µM stood at 89.9%.
As for `CCc1cc2c(N3CCN(C(=O)c4nnc(-c5ccccc5)o4)CC3)nc(SCC(=O)OC)nc2s1` [Example 70, Methyl [(6-ethyl-4-{4-[(5-phenyl-1,3,4-oxadiazol-2-yl)carbonyl]piperazin-1-yl}thieno[2,3-d]pyrimidin-2-yl)thio]acetate], the pIC50 was 6.84, the pKi was 7.05 and the inhibition at 10 µM worked out at 82.1%.
On to `CCc1cc2c(N3CCN(C(=O)c4ccc(C#N)cc4)CC3)nc(SCC(=O)OC)nc2s1` [Example 52, Methyl ({4-[4-(4-cyanobenzoyl)piperazin-1-yl]-6-ethylthieno[2,3-d]pyrimidin-2-yl}thio)acetate], for which the pIC50 is 5.57, the pKi is 5.75 and the inhibition at 10 µM was determined as 67.7%.
The matching figures for `CCc1cc2c(N3CCN(C(=O)CCCCC(=O)OC)CC3)nc(SCC(=O)OC)nc2s1` [Example 43, Methyl 6-(4-{6-ethyl-2-[(2-methoxy-2-oxoethyl)thio]thieno[2,3-d]pyrimidin-4-yl}piperazin-1-yl)-6-oxohexanoate]: 5.62, 5.80 and 78.2%.
On to `CCc1cc2c(N3CCN(C(=O)c4ccc5ccoc5c4)CC3)nc(SCC(=O)OC)nc2s1` [Example 65, Methyl ({4-[4-(1-benzofuran-6-ylcarbonyl)piperazin-1-yl]-6-ethylthieno[2,3-d]pyrimidin-2-yl}thio)acetate], for which the pIC50 was 6.21, the pKi was 6.43 and the inhibition at 10 µM stood at 81%.
For the compound `CCc1cc2c(N3CCN(C(=O)c4ccc5c(c4)OCC5)CC3)nc(SCC(=O)OC)nc2s1` [Example 67, Methyl ({4-[4-(2,3-dihydro-1-benzofuran-6-ylcarbonyl)piperazin-1-yl]-6-ethylthieno[2,3-d]pyrimidin-2-yl}thio)acetate], the pIC50 was 5.91, the pKi was 6.13 and the inhibition at 10 µM amounted to 79.7%.

Values taken from patent US20080176857A1, “4-Piperazinnylthieno[2,3-d]Pyrimidine Compounds as Platelet Aggregation Inhibitors” (priority 2005, published 2008).
